Data taken from patent publication US20190169597A1, “GENOME EDITING ENHANCERS” (bluebird bio, Inc., priority 2016, published 2019).
Entries after “also recorded” stand apart in the source; their conditions may differ. Where a name gives a salt, the structure may show the parent alone.

How the values were obtained:
[1] = system: TCRα gene in primary human T cells; experiment: Small molecule screen: megaTAL-mediated disruption of the TCRα gene detected by loss of CD3 cell surface staining; assay type: cell-based; conditions: 10 μM, 24 hours at 37° C., then three more days; proportion of CD4/CD8+ cells negative for CD3
Description: A small molecule screen (FIG. 1) was performed to identify candidate soluble factors which could modulate the efficiency of genomic editing at the TCR locus in primary human T cells.

[2] = system: primary human T cells; experiment: Small molecule screen: cell yield (flow cytometry events in the live gate); conditions: 10 μM, 24 hours at 37° C., then three more days; number of flow cytometry events in the live gate
Description: Briefly, purified CD3+ primary human T cells were activated with CD3/CD28 magnetic beads and cultured for 48 hours in IL-2 supplemented complete RPMI media prior to bead removal. After bead removal, T cells were washed and electroporated with in vitro transcribed mRNA encoding a T cell receptor alpha (TCRα) targeting megaTAL-Trex2 fusion mRNA. Cells were then distributed into 384-well format and contacted with a library of ˜2000 known drugs, natural products, and other bioactive components (Microsource Discovery System's Spectrum Collection), with each drug at a final concentration of 10 μM. Cells were cultured with the compounds for 24 hours at 37° C. and then washed and cultured for an additional three days. Cells were then stained for CD3, CD4, and CD8 surface markers, and subjected to high-throughput volumetric flow cytometric analysis.
The number of flow cytometry events in the “live” gate of the FSC/SSC profile was used as a measure of cell yield.

[3] = system: TCRα gene in primary T cells; experiment: Dose response of megaTAL-Trex2 TCRα gene disruption (NHEJ editing efficiency) in primary T cells; assay type: cell-based, human; conditions: 24 hours at 30° C. or 37° C.
Description: (§1) T cells were purified, activated and electroporated with mRNA encoding TCRα-targeting megaTAL-Trex2 fusion as described in Example 1. Electroporated cells were cultured for 24 hours at either 30° C. or 37° C. with Tilorone, Aminacrine, Homidium Bromide (Ethidium Bromide) and Harmine. Cells were then washed to remove residual compound and cultured for an additional three days. After the three days of culture, the cells were stained with CD4, CD8 and CD3 and analyzed by flow cytometery as described in Example 1.

[4] = system: primary T cells; experiment: Dose response of primary T cell viability and yield; assay type: cell-based, human; conditions: 24 hours at 30° C. or 37° C.
Description: as §1

[5] = system: TCRα locus in primary human T cells; experiment: Aminacrine HDR assay: megaTAL-induced HDR of AAV MND-GFP transgene at the TCRα locus; assay type: cell-based; conditions: for % GFP positive cells: megaTAL +
From the text: Adeno-associated virus (AAV) plasmids containing transgene cassettes comprising a promoter, a transgene encoding a fluorescent protein, and a polyadenylation signal were designed and constructed. The integrity of AAV ITR elements was confirmed with XmaI digest. The transgene expression cassette was placed between two homology regions within exon 1 of the TCRα gene to enable targeting by homologous recombination (AAV targeting vector) using a TCRα-targeting megaTAL. The 5′ and 3′ homology regions were ˜1500 bp and ˜1000 bp in length, respectively, and neither homology region contained the complete megaTAL target site. The transgene expression cassette contained a myeloproliferative sarcoma virus enhancer, negative control region deleted, d1587rev primer-binding site substituted (MND) promoter operably linked to a polynucleotide encoding a fluorescent polypeptide, e.g., green fluorescent protein (GFP). The expression cassettes also contain the SV40 late polyadenylation signal.
Recombinant AAV-6 (rAAV) was prepared by transiently co-transfecting HEK 293T cells with one or more plasmids providing the replication, capsid, and adenoviral helper elements necessary. rAAV was purified from the co-transfected HEK 293T cell culture using ultracentrifugation in an iodixanol-based gradient.
MegaTAL-induced homology directed repair (HDR) was evaluated in primary human T cells activated with CD3 and CD28 and cultured in complete media supplemented with IL-2. […] Controls included T cells containing megaTAL or rAAV targeting vector alone. Cells were cultured overnight at 30° C. in the presence or absence of two different doses of aminacrine. Five days post electroporation the frequency of GFP+ T cells was measured by flow cytometry.

[6] = system: BCL11A erythroid enhancer locus in primary human CD34+ cells; experiment: HDR of AAV BFP template at the BCL11A erythroid enhancer with BCL11A megaTAL in CD34+ cells; assay type: cell-based; conditions: aminacrine 0.3 μM, 1.0 μM, 3.0 μM for 24 hours
Description: Adeno-associated virus (AAV) plasmids containing a promoter, a GFP or BFP reporter transgene and a polyadenylation signal were designed, constructed, and verified. The transgene was flanked by either 1.3 kb and 1.0 kb homology arms to the BCL11A erythroid enhancer locus at DHS58 (Bauer et al., Science. 342(6155): 253-7 (2013)). rAAV is generated by transient transfection of HEK293T cells, as described in Example 3.
(§2) Primary human peripheral blood-derived CD34+ cells were cultured in cytokine-supplemented media for 72 hours. Cells were washed and electroporated with either an mRNA encoding a megaTAL specific for the human BCL11A erythroid enhancer region or a megaTAL targeting the human CCR5 locus. Cells were then incubated with AAV vector with or without aminacrine at concentrations of 0 μM, 0.3 μM, 1.0 μM, and 3.0 μM for 24 hours, washed and cultured in cytokine-supplemented media. HDR was analyzed at regular timepoints by flow cytometry to determine BFP fluorescence.

[7] = system: CCR5 locus in primary human CD34+ cells; experiment: Non-target control: CCR5-specific megaTAL combined with BCL11A-targeting AAV template in CD34+ cells; assay type: cell-based; conditions: aminacrine 0.3-3.0 μM for 24 hours
Description: as §2

[8] = system: human peripheral blood CD34+ cells; experiment: Methylcellulose colony forming assay of edited CD34+ cells; assay type: cell-based
Description: (§3) A potential caveat with using small molecules to enhance gene repair is the impact on hematopoietic stem and progenitor cell survival. The methylceulluose colony forming assay was used to determine the impact of aminacrine treatment on hematopoietic stem and progenitor cell survival in vitro. Human peripheral blood CD34+ cells were cultured in cytokine supplemented media, electroporated with mRNA encoding BCL11A-specific megaTAL and transduced with BCL11A-HDR AAV vector, as described in Example 4.
(§4) Cells were cultured in the presence or absence of aminacrine during the first 24 hours post-electroporation. Following this post-electroporation recovery step, cells were counted and plated into methylcellulose media.
After 14 days in methylcellulose culture, the erythroid burst-forming units (BFU) and hematopoietic colony forming units (CFU) were scored based on frequency and morphology. […] FIG. 6.

[9] = system: BCL11A locus in primary human hematopoietic stem and progenitor cells; experiment: HDR in methylcellulose colonies derived from CD34+ cells, by flow cytometry; assay type: cell-based; conditions: samples treated with both megaTAL and rAAV vector
Description: as §3, §4
To determine whether treatment with aminacrine could yield elevated HDR rates in methylcellulose colonies derived from primary human hematopoietic stem and progenitor cells, colonies were harvested and analyzed by flow cytometry. […] FIG. 7.

[10] = system: BCL11A erythroid enhancer region in primary human CD34+ cells; experiment: HDR in bulk CD34+ cell population with BCL11A megaTAL and AAV donor template; assay type: cell-based; conditions: aminacrine 1.0 μM for 24 hours
Description: as §2, with “48” for “72”, “with” for “with either”, “region.” for “region or a megaTAL targeting the human CCR5 locus.”, “a concentration” for “concentrations”, “of” for “of 0 μM, 0.3 μM,”, “1.0” for “1.0 μM, and 3.0”

Row | SMILES | % CD3 negative [1] | Cell Yield [2] | efficiency of TCRα disruption (proportion of CD3-negative cells), in words [3] | also measured
1 | CCOc1ccc2nc3cc(N)ccc3c(N)c2c1 [Ethacridine Lactate] | 70.4% | 14179 |  | 
2 | C[C@@H]1C[C@@H]([C@H](O)CC2CC(=O)NC(=O)C2)C(=O)[C@@H](C)C1 [Cyclohexamide] | 68.7% | 4166 |  | 
3 | CCN(CC)CCOc1ccc2c(c1)C(=O)c1cc(OCCN(CC)CC)ccc1-2 [Tilorone] | 86.8% | 310 | Enhance MegaTAL-Mediated Gene Disruption | 
4 | C[n+]1cc2c3c(ccc2c2ccc4cc5c(cc4c21)OCO5)OCO3 [Sanguinarine Sulfate] | 71.1% | 2346 |  | 
5 | CCN(CC)CCNc1ccc(CO)c2sc3ccccc3c(=O)c12 [Hycanthone] | 74.1% | 10012 |  | 
6 | CC[n+]1c(-c2ccccc2)c2cc(N)ccc2c2ccc(N)cc21 [Homidium Bromide] | 80.3% | 1023 | Enhance MegaTAL-Mediated Gene Disruption | 
7 | OC[C@H]1O[C@@H](n2cnc3c(NCc4ccco4)ncnc32)[C@H](O)[C@@H]1O [Kinetin Riboside] | 70.8% | 1668 |  | 
8 | COc1ccc2c(c1)[nH]c1c(C)nccc12 [Harmine] | 75.1% | 9581 | Enhance MegaTAL-Mediated Gene Disruption | 
9 | Nc1c2ccccc2nc2ccccc12 [Aminacrine, 9-aminoacridine] | 82.8% | 13621 | Enhance MegaTAL-Mediated Gene Disruption; also recorded: substantially enhanced gene disruption | T cell viability and yield, in words [4]: minimal impact on cell viability; % GFP+ (frequency of HDR events) ([5]; 10 μM aminacrine following megaTAL transfection, 18% without aminacrine): 36%; % GFP positive cells ([5]; Donor 783, Aminacrine 2 μM, AAV-GFP +): 25%; % GFP positive cells ([5]; Donor 783, Aminacrine 2 μM, AAV-GFP −): 0; % GFP positive cells ([5]; Donor 783, Aminacrine 10 μM, AAV-GFP +): 36%; % GFP positive cells ([5]; Donor 783, Aminacrine 10 μM, AAV-GFP −): 0; % GFP positive cells ([5]; Donor 855, Aminacrine 2 μM, AAV-GFP +): 41%; % GFP positive cells ([5]; Donor 855, Aminacrine 2 μM, AAV-GFP −): 0; % GFP positive cells ([5]; Donor 855, Aminacrine 10 μM, AAV-GFP +): 38%; % GFP positive cells ([5]; Donor 855, Aminacrine 10 μM, AAV-GFP −): 0; frequency of HDR events (% GFP+ cells), in words ([5]; T cells, aminacrine 2 μM and 10 μM overnight at 30° C.): concentration-dependent increase; HDR frequency at the BCL11A locus (% BFP+ cells), in words [6]: concentration-dependent increase in HDR frequency; Template capture via a non-homology driven NHEJ pathway, in words [7]: not enhanced; proportion of BFP+ cells with CCR5-specific megaTAL and BCL11A-targeting AAV template, in words [7]: did not significantly increase; proportion of BFP+ cells with CCR5-specific megaTAL and BCL11A-targeting AAV template, in words ([7]; listed as aminacrine): not at the non-target CCR5 locus; lineage output of BFU and CFU colonies, in words ([8]; 14 days in methylcellulose culture, aminacrine during first 24 hours post-electroporation): comparable lineage output and showed no overt lineage skewing; hematopoietic stem and progenitor cell survival, in words ([8]; methylcellulose colony forming assay): does not Adversely Affect; proportion of cells undergoing HDR in methylcellulose colonies, in words [9]: increased the proportion of cells undergoing HDR; HDR frequency at the BCL11A locus (% BFP+ cells) in bulk CD34+ cells, in words [10]: increased HDR frequency; HDR frequency at the BCL11A locus (% BFP+ cells) in bulk CD34+ cells, in words ([10]; listed as aminacrine): increases HDR
10 | COc1cccc2c1C(=O)c1c(O)c3c(c(O)c1C2=O)C[C@@](O)(C(C)=O)C[C@@H]3O[C@H]1C[C@H](N)[C@H](O)[C@H](C)O1 [Daunorubicin] | 73.3% | 35 |  | 
